Here are results for one molecule from publication PMC7782499, “Progerinin, an optimized progerin-lamin A binding inhibitor, ameliorates premature senescence phenotypes of Hutchinson-Gilford progeria syndrome” (Communications Biology, 2021).

One data set in a line: Plasma stability, human. The class given is in vitro ADME. The protocol: For PK analysis, 5 mg/kg of JH4 in 10% DMSO, 5% […] solution were intravenously injected and 10 mg/kg of JH4 in 10% NMP and 90% PEG400 solution were orally delivered. At pre-set time-points, blood concentration of JH4 was determined by LC-MS/MS analysis[22],[23]. Other chemicals were also tested using similar protocol. In vitro ADME studies (plasma protein binding, CYP inhibition, microsomal stability, plasma stability, and hERG inhibition) were performed by New Drug Development Center (Daegu, Korea) using standard protocols[24],[25].

The next data set concerns Lmna G609G/+ mouse. As to the kind of experiment: Radiological examination (kyphosis index, incisors). The class given is in vivo. Conditions: Lmna G609G/+ mice. The protocol:
The radiographic study was performed in anaesthetized living mice using a human radiographic system (College of Veterinary Medicine, Gyeongsang National University, Korea). A single radiograph of right lateral view of the whole body was obtained. Age-matched (at 41 weeks old) Lmna^+/+ mice, untreated Lamn^G609G/+ mice, and progerinin-treated Lmna^G609G/+ mice were radiographed. The images were recorded in DICOM format and then transferred to a personal computer. KI[28],[30] and abnormalities of the incisors were evaluated. Data processing and analysis were performed using a RadiAnt DICOM system in Institute of Animal Medicine, College of Veterinary Medicine, Gyeongsang National University (Jinju, Korea). […]
LmnaG609G transgenic mice at 41 weeks of age. Abundant adipose tissues are present in abdomens of
Lmna+/+ and progerin- treated LmnaG609G/+ mice compared to untreated LmnaG609G/+ mice. Kyphosis Index
(KI) index was accessed after 8-week treatment.
untreated LmnaG609G/+, and D011- treated LmnaG609G/+ mice at 41 weeks of age (unpaired t-test), *p < 0.05.
Severity of kyphosis depends on genotype and treatment of SLC-D011. H. Gross morphology of age-

For the next data set, the system named is HGPS cells. Kind of data set: RT-PCR of progerin/prelamin A, CENP-A, IL-6, IL-8, BRCA1 transcripts. The class given is cell-based, human. As for the experimental part:
For RT-PCR, total cellular RNA was extracted using RNA extraction kit (Qiagen). Gene expression studies were performed using cDNA synthesized from total RNA with MMLV RT (Invitrogen, Carlsbad, USA) and random hexamers. PCR from genomic DNA was perform using DiaStar Taq DNA polymerase (SolGent, Daejeon, Korea) and 50 ng of cDNA. Wild-type prelamin A cDNA was synthesized by PCR amplification using a forward primer, 5′-[…]-3′ and a reverse primer, 5′-[…]-3′. The thermal cycling conditions were as follows: 94°C for 3 min (activation), 94°C for 1 min (denaturation), 61°C for 1 min (annealing) and 72°C for 42 sec (extension) up to 35 cycles. The PCR products were analyzed through 2% agarose electrophoresis and DNA was visualized by ethidium bromide staining and UV photography. Levels of other transcripts were also performed with the following oligonucleotide primers: CENP-A, 5′-[…]-3′ and 5′-[…]-3′; BRCA1, 5′-[…]-3′ and 5′-[…]-3′; IL-6, 5′-[…]-3′ and 5′-[…]-3′; IL-8, 5′-[…]-3′ and 5′-[…]-3′ and GAPDH 5′-[…]-3′ and 5′-[…]-3′.
Fig. S3. Chemical screening with JH4 derivatives (a total of 53 chemicals except JH010 and SLC -D011 were used). A. Summarized tables for effects of JH4 derivatives. ‘+’ means s t re ngt h of binding affinity or expression level after treatment of chemicals. […]

Molecules are shown by their SMILES. Values joined by “and” are separate entries in the source; they are usually repeats but may differ in a detail not shown here. Identical values can stand only once. Some results are limits rather than exact numbers.

On to `CC1(C)Oc2cc3oc(=O)ccc3cc2C[C@@H]1OC/C=C/c1ccccc1` [SLC-D011], for which the fraction remaining at 0.5 h in “Plasma stability, human” (30min) is above 100%. In addition, the share remaining at 2 h in the data set “Plasma stability, human” (120min) was above 100%. In the data set on Lmna G609G/+ mouse (41 weeks of age), the Abnormalities of incisors result was “ameliorated these abnormalities” and the “Kyphosis index (KI)” value is “recovered”. Besides, in the data set with Lmna G609G/+ mouse (Ave), the Kyphosis index stood at 4.2583. For the same molecule, in the data set with Lmna G609G/+ mouse (individual mouse), the Kyphosis index is 3.759 and 3.649 and 5.045 and 4.58. For the same molecule, the “mRNA expression of progerin” value in the data set with HGPS cells is listed as “without alteration of mRNA expression of progerin”.
